Some results are limits rather than exact numbers.

What is called EC50 is the concentration needed to bring the measured effect to its halfway point.

Holding throughout (format): cell-based
Assay [1] has as its target T1, hCX3CR1 (Homo sapiens, UniProt P49238).
T1 sequence (P49238 1-355): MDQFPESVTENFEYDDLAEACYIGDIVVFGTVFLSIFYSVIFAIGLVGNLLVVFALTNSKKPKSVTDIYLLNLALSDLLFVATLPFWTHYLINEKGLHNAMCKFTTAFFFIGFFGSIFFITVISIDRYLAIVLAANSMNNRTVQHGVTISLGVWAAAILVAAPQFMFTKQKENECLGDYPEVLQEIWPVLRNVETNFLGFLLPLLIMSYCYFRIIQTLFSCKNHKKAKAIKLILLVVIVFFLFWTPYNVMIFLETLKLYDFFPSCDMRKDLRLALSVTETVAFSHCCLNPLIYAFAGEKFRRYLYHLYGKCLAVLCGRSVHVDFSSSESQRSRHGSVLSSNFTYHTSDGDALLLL
As to the kind of experiment: Suchi5 assay (HEK/NatClytin/CNG/Suchi5 transiently transfected hCX3CR1, Fluo-8 Ca2+ readout). The arrangement: expressed in transfected cells; stably expresses a Ca2+ sensitive photo-protein. The conditions noted are these: Suchi5 assay, HEK/NatClytin/CNG/Suchi5 transfected with hCX3CR1; read-out: hCX3CR1 agonism EC50. As for the experimental part: Buffers and reagents. PBS (D-PBS without calcium and magnesium; EuroClone); Trypsin (Trypsin 0.05%, EDTA 0.02% in PBS; EuroClone); Opti-MEM medium (Thermo Fisher); DMSO (Sigma); Standard tyrode buffer: in-house solution (130 mM NaCl, 5 mM KCl, 2 mM CaCl2), 1 mM MgCl2, 5 mM NaHCO3, 20 mM HEPES in water at pH 7.4; sterile filtered); Screen Quest™ Fluo-8 No Wash Calcium Assay Kit (AAt Bioquest®); Lipofectamine® 2000 Reagent (Thermo Fisher); Agonist: Recombinant Human Fractalkine (CX3CL1) (PeproTech); stock: 10 μM in standard Tyrode buffer/BSA 01%; stored at −20° C.
Cell line. The final cell line for CX3CR1-Suchi5 assay is HEK/NatClytin/CNG/Suchi5 transiently transfected hCX3CR1 cDNA. In this cell line native Gαi signaling is switched to Gαq pathway thanks to the overexpression of a Gαiq chimeric G protein (called Suchi5) to direct Gαi activation towards Ca^2+ release for measurement.
Assay protocol. Experiments are performed in 384 MTP format. Transiently transfected cells are seeded at 20,000 cells/well in 25 μl/well Opti-MEM medium without selection antibiotics in 384-well plates. 4-5-hours later 25 μL/well of complete medium with 20% of FBS are added to the cells. Twenty-four hours later, cells are assayed for the response to various compounds using a fluorescent Ca^2+ sensitive dye (FLUO8-No Wash Dye) as readout.
The experiment is performed in a 384-well format according to the following procedure: • 24h after seeding, remove the culture medium. • Load cells with 20 μL/well of 0.5X FLUO-8 No Wash Dye diluted in assay buffer. • Incubate cell plates for 1 hour at RT. • Inject 10 μL/w of 3× concentrated test compounds and controls in assay buffer at the FLIPRTETRA and monitor the kinetic response over a period of 90 seconds.
Data from FLIPRTETRA measurements are analyzed with the Genedata Screener© software.

Assay [2] addresses T1, hCX3CR1. The assay is described as follows: Ga16 assay, CX3CR1 agonism, Ca2+ sensitive photo-protein readout (FLIPRTETRA). The arrangement: expressed in transfected cells; stably expresses a Ca2+ sensitive photo-protein. Conditions: human CX3CR1 cell line. As for the experimental part:
(§1) Compounds (as well as stereoisomer(s) thereof and/or salt(s) thereof) were tested for CX3CR1 agonism in a cell based assay with fluorescent readout in Agonist Mode in dose response in quadruplicate with intra-plate modality).
(§2) Buffers and reagents. PBS (D-PBS without calcium and magnesium; EuroClone); Trypsin (Trypsin 0.05%, EDTA 0.02% in PBS; EuroClone); DMSO (Sigma); Standard tyrode buffer: in-house solution (130 mM NaCl, 5 mM KCl, 2 mM CaCl2), 1 mM MgCl2, 5 mM NaHCO3, 20 mM HEPES in water at pH 7.4; sterile filtered); Coelenterazine, native (Biosynth); stock 10 mM; Agonist: Recombinant Human Fractalkine (CX3CL1) (PeproTech); stock: 10 μM in standard tyrode buffer+BSA 0.1%; stored at −20° C.
(§3) Cell line. Human (hCX3CR1), mouse (mCX3CR1), and rat (rCX3CR1) were used for the assay.
(§4) Assay protocol. Experiments ere performed in 384 MTP format. Cells were seeded at 7,500 cells/well in 25 μl/well complete growth medium without selection antibiotics in 384-well plates. Twenty-four hours later, cells ere assayed for the response to various compounds using the Ca^2+ sensitive photo-protein stably expressed in the cells as readout.
(§5) The experiment was performed in a 384-well format according to the following procedure: • 24h after seeding, pre-incubate the cells at room temperature for 1 hour. • Then remove the culture medium. • Load cells with 20 μL/well of standard tyrode buffer+10 μM ceolenterazine. • Incubate cell plates for 3 hours at RT. • Inject 10 μL/w of 3× concentrated test compounds and controls in assay buffer at the FLIPRTETRA and monitor the kinetic response over a period of 90 seconds.
(§6) Data from FLIPRTETRA measurements were analyzed with the Genedata Screener© software. The following examples are meant to illustrate, but in no way to limit, the claimed invention.

Another assay concerns the target T2, mCX3CR1 (Mus musculus, UniProt Q9Z0D9).
T2 construct: expressed in transfected cells; stably expresses a Ca2+ sensitive photo-protein
T2 sequence (Q9Z0D9 1-354): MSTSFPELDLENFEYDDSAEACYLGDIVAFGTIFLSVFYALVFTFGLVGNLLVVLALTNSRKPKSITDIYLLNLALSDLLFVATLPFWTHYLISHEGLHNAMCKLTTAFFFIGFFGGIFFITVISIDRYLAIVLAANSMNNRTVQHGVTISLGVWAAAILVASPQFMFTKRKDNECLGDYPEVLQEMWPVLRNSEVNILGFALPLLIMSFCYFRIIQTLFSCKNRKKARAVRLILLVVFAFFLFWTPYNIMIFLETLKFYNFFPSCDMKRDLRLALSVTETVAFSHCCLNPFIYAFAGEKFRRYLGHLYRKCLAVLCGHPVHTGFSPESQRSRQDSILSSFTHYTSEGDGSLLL
Described as above. Conditions: mouse CX3CR1 cell line. As for the experimental part: as §1, §2, §3, §4, §5, §6

In another assay the target is T3, rCX3CR1 (Rattus norvegicus, UniProt P35411).
T3 construct: expressed in transfected cells; stably expresses a Ca2+ sensitive photo-protein
T3 sequence (P35411 1-354): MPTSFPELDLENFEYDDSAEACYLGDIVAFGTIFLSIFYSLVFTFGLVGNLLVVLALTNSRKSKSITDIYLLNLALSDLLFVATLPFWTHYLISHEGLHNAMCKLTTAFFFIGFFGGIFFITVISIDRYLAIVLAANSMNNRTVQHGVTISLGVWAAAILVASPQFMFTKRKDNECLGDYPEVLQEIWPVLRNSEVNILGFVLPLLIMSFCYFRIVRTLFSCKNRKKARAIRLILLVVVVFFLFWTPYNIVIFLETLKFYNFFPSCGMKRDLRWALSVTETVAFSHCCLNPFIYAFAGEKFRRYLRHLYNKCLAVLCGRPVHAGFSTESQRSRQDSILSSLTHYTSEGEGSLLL
The description is as above. Conditions: rat CX3CR1 cell line. As for the experimental part:
as §1, §2, §3, §4, §5, §6

Consider `CN(C)CC1(CNC(=O)c2cc3c(s2)CCCCCC3)CC(F)(F)C1` [Example 56, N-[[1-[(dimethylamino)methyl]-3,3-difluorocyclobutyl]methyl]-4,5,6,7,8,9-hexahydrocycloocta[b]thiophene-2-carboxamide], for which the EC50 at hCX3CR1 [1] was found to be 9.6 µM; at hCX3CR1 [2] it was 18.5 µM; at mCX3CR1, 24.9 µM; on rCX3CR1, 23.9 µM.

On to `CC1(O)CCCN(CC2(CNC(=O)c3cc4c(s3)CCCCCC4)CCCC2)C1` (stereo not drawn) [Example 52, N-[[1-[(3-hydroxy-3-methylpiperidin-1-yl)methyl]cyclopentyl]methyl]-4,5,6,7,8,9-hexahydrocycloocta[b]thiophene-2-carboxamide], for which the EC50 on hCX3CR1 [1] was determined as 8.4 µM; at hCX3CR1 [2], 19.4 µM; on mCX3CR1 it was 25.1 µM; at rCX3CR1 it was 19.4 µM.

As to `O=C(NCC1(CN2CCCC2)CCOC1)c1cc2c(s1)CCCCCC2` (stereo not drawn) [Example 39, N-[[3-(pyrrolidin-1-ylmethyl)oxolan-3-yl]methyl]-4,5,6,7,8,9-hexahydrocycloocta[b]thiophene-2-carboxamide], the EC50 is 11.1 µM on hCX3CR1 [2], 9.6 µM on mCX3CR1 and 10.9 µM on rCX3CR1.

Regarding `CC1(C)CN(CC2(CNC(=O)c3cc4c(s3)CCCCCC4)CCC2)CCC1O` (stereo not drawn) [Example 58, N-[[1-[(4-hydroxy-3,3-dimethylpiperidin-1-yl)methyl]cyclobutyl]methyl]-4,5,6,7,8,9-hexahydrocycloocta[b]thiophene-2-carboxamide], the EC50 on hCX3CR1 [1] was found to be 5 µM; on hCX3CR1 [2] it was 21.9 µM; on mCX3CR1, 19.1 µM; at rCX3CR1 it was 16.8 µM.

As to `CC(C)OC1CCCN(CC2(CNC(=O)c3cc4c(s3)CCCCCC4)CCC2)C1` (stereo not drawn) [Example 50, N-[[1-[(3-propan-2-yloxypiperidin-1-yl)methyl]cyclobutyl]methyl]-4,5,6,7,8,9-hexahydrocycloocta[b]thiophene-2-carboxamide], the EC50 on hCX3CR1 [1] came out at 16.1 µM; on hCX3CR1 [2] it was 15.8 µM; at mCX3CR1, 45.7 µM; on rCX3CR1 it was 43.5 µM.

`O=C(NCC1(CN2CCC(O)C2)CCCC1)c1cc2c(s1)CCCCCC2` (single isomer, unassigned) [Example 64, N-[[1-[(3-hydroxypyrrolidin-1-yl)methyl]cyclopentyl]methyl]-4,5,6,7,8,9-hexahydrocycloocta[b]thiophene-2-carboxamide]: the EC50 was determined as 8.7 µM at hCX3CR1 [1], 10.2 µM on hCX3CR1 [2], 13.7 µM at mCX3CR1 and 9.1 µM at rCX3CR1.

`COC1CCN(CC(C)(C)CNC(=O)c2cc3c(s2)CCCCCC3)CC1` [Example 47, N-[3-(4-methoxypiperidin-1-yl)-2,2-dimethylpropyl]-4,5,6,7,8,9-hexahydrocycloocta[b]thiophene-2-carboxamide]: the EC50 at hCX3CR1 [1] turned out to be 16.4 µM; on hCX3CR1 [2], 12.6 µM; on mCX3CR1 it was 71.5 µM; at rCX3CR1 it was 19.8 µM.

As for `O=C(NCC1(CN2CCC2)CCOCC1)c1cc2c(s1)CCCCCC2` [Example 35, N-[[4-(azetidin-1-ylmethyl)oxan-4-yl]methyl]-4,5,6,7,8,9-hexahydrocycloocta[b]thiophene-2-carboxamide], the 50% effective concentration (EC50) is 12.8 µM at hCX3CR1 [2], 18 µM at mCX3CR1 and 12.1 µM on rCX3CR1.

As for `O=C(NCC1(CN2CCCC2)CCCOC1)c1cc2c(s1)CCCCCC2` (stereo not drawn) [Example 44, N-[[3-(pyrrolidin-1-ylmethyl)oxan-3-yl]methyl]-4,5,6,7,8,9-hexahydrocycloocta[b]thiophene-2-carboxamide], the EC50 on hCX3CR1 [2] worked out at 9.6 µM; on mCX3CR1, 10.8 µM; on rCX3CR1, 8.4 µM.

In the case of `O=C(NCC1(CN2CCC(O)CC2)CCOCC1)c1cc2c(s1)CCCCCC2` [Example 40, N-[[4-[(4-hydroxypiperidin-1-yl)methyl]oxan-4-yl]methyl]-4,5,6,7,8,9-hexahydrocycloocta[b]thiophene-2-carboxamide], the EC50 at hCX3CR1 [2] worked out at 20.8 µM; at mCX3CR1, 83.8 µM; on rCX3CR1, 74.9 µM.

For `COCCOC1CCN(CC(C)(C)CNC(=O)c2cc3c(s2)CCCCCC3)CC1` [Example 42, N-[3-[4-(2-methoxyethoxy)piperidin-1-yl]-2,2-dimethylpropyl]-4,5,6,7,8,9-hexahydrocycloocta[b]thiophene-2-carboxamide], the EC50 is 22.6 µM on hCX3CR1 [2], over 100 µM on mCX3CR1 and 81.4 µM at rCX3CR1.

For `CN(C)CC1(CNC(=O)c2cc3c(s2)CCCCCC3)CCCOC1` (stereo not drawn) [Example 37, N-[[3-[(dimethylamino)methyl]oxan-3-yl]methyl]-4,5,6,7,8,9-hexahydrocycloocta[b]thiophene-2-carboxamide], the EC50 came to 12.2 µM at hCX3CR1 [2], 15 µM at mCX3CR1 and 11.5 µM at rCX3CR1.

`CN(C)CC1(CNC(=O)c2cc3c(s2)CCCCCC3)CCOC1` (stereo not drawn) [Example 38, N-[[3-[(dimethylamino)methyl]oxolan-3-yl]methyl]-4,5,6,7,8,9-hexahydrocycloocta[b]thiophene-2-carboxamide]: the EC50 at hCX3CR1 [2] turned out to be 10 µM; at mCX3CR1, 15.8 µM; at rCX3CR1, 13.1 µM.

Regarding `O=C(NCC1(CN2CCC2)CCC1)c1cc2c(s1)CCCCCC2` [Example 36, N-[[1-(azetidin-1-ylmethyl)cyclobutyl]methyl]-4,5,6,7,8,9-hexahydrocycloocta[b]thiophene-2-carboxamide], the results for the EC50 on hCX3CR1 [2], at mCX3CR1 and at rCX3CR1 were 9.1 µM, over 100 µM and over 100 µM, respectively.

(Values after US12258337B2, “Bicyclic CX3CR1 receptor agonists” (Board of Regents, The University of Texas System, priority 2019, dated 2025).)
